Literature values, collected in article PMC5245897 (PLoS ONE, 2017).

System: GLP-1 receptor
Design: method as in PMID 8396143
Conditions: GLP-1 receptor antagonist

Substance: Exendin(9–39)
- GLP-1 receptor binding (in words): GLP-1 receptor antagonist binding with high affinity
